Measured values reported in a melting point compilation (Tetko et al.; mined from patent text by program, amines drawn as free bases though some values may be those of a salt).

SMILES	melting point [°C]
CN1CC(c2ccc(OC(F)(F)F)cc2)(c2ccc(F)c(-c3cccnc3F)c2)N=C1N (centres undefined)	65 to 70
CC(C)CCC1C(=O)N(c2c(F)c(F)nc(F)c2F)S(=O)(=O)N1C (centres undefined)	80.5 to 81.5
Cc1nc2c(cc1C=O)CCCCC2	38 to 40
CCN(C(=O)CN(C(=O)CNC(=O)Nc1cccc(C)c1)c1ccccc1)c1ccccc1	158
CCOC(=O)CN1CC[C@@H](O)C1=O	84 to 85
COC(=O)C(=CN(C)C)n1ccc2ccc(-c3nccc(-c4ccccc4)n3)cc21	168
COc1ccc(S(=O)(=O)N2C(=O)C(O)(c3ccccc3OC)c3cc(Cl)c(C)cc32)c(OC)c1 (centres undefined)	207 to 208
CCCCCCCCOc1ccc(-c2ccc(OC(F)F)cc2)cc1	104
CNC(=O)NCCNCC(O)COc1ccc(OCCOCC(C)C)cc1 (centres undefined)	121
CCCC(Cc1ccccc1)c1nc2c([nH]1)c(=O)n(CCC)c(=O)n2CCC (centres undefined)	158 to 160
O=C(Nc1ccccc1)C1=C(Nc2ccccc2)COC1=O	175 to 176
COc1ccc(C(=O)N2CCN(c3ccc([N+](=O)[O-])c(C=CC(=O)O)c3)CC2)cc1OC	197 to 202
CC(C)NC(c1nccn1C)C1(c2ccc(Cl)c(Cl)c2)CCC1 (centres undefined)	98 to 100
O=C1CCC(c2ccc(-c3ccccc3F)cc2)O1 (centres undefined)	74 to 75
Nc1c(N=O)c(=O)n(CC2CCC2)c(=O)n1CC1CCC1	251 to 252
Cc1cc(C)cc(C(=O)c2c(-c3ccc(OCC(O)CNC(C)C)cc3)oc3ccccc23)c1 (centres undefined)	154 to 157
CC(C)(CO)Cc1cc(C(C)(C)C)c(O)c(C(C)(C)C)c1	84 to 86
COc1nc(NC(=O)NS(=O)(=O)CC(C)Cl)nc(OC)n1 (centres undefined)	139 to 141
O=CC1(Br)C2CCC(CC2)C1c1ccccc1 (centres undefined)	65 to 66
CCCCCCCCCCC#Cc1csc(CC(CO)NC(C)=O)c1 (centres undefined)	55 to 58
CCOC(=O)Nc1cc(-n2cc(C(=O)OCC)c(=O)c3c(OCc4ccccc4)c(F)c(F)cc32)c(F)cc1F	130 to 134

SMILES	melting point [°C]
CC(=O)OCC1OC(OC(C)=O)C(N=[N+]=[N-])C(OC(C)=O)C1OC(C)=O (centres undefined)	131 to 132
COc1ccc(-n2nc(-c3ccccc3O)nc2-c2ccccc2O)cc1	179 to 181
Cc1cccc(-c2sc(N)nc2-c2ccnc(-c3ccc(OCC(=O)N4CCOCC4)cc3)c2)n1	172
CN(CCOc1ccc([N+](=O)[O-])cc1)c1ccncc1	88 to 89
COc1c(C(=S)NCCNC2CCCCCC2)cc(C)c2ccccc12	140 to 141
Cc1ccc(-c2noc(-c3ccc4c(c3)C(C)(C)CCC4(C)C)n2)cc1	106 to 109
COC(=O)C[C@]1(C(=O)OC)CC(c2ccc(OC)c(OC3CCCC3)c2)=NO1	92 to 93
COC(=O)C[C@@H](CC(=O)C=Cc1c(-c2ccc(F)cc2)c(-c2ccccc2)c(C(=O)Nc2ccccc2)n1C(C)C)O[Si](C)(C)C(C)(C)C	62 to 64
CC(c1ccncc1)C(O)(Cn1cncn1)c1ccc(F)cc1F (centres undefined)	161 to 163
N#CC(C#N)=C1N(CCCNC2CCCCC2)CCN1CCN1CCCCC1	78 to 80
CCCCc1nc2c(N)nc3ccccc3c2n1CCCC(=NO)c1ccccc1	242 to 244
O=C(O)c1ccc2[nH]cc(CCCCN3CC=C(c4ccccc4)CC3)c2c1	284 to 285
CCOC(=O)NC(=S)SCC	60
CCCCCC(=O)Nc1ccc2c(c1)c(Cc1ccc(C(=O)O)cc1OC)cn2CC(=O)O	235 to 240
COc1cc(N2CCC(N3CC[C@@H](O)C3)CC2)ccc1[N+](=O)[O-]	137 to 139
COc1ccc(C(C)N(C)CCCOc2ccc(S(=O)(=O)c3ncc(-c4ccccc4)n3-c3ccccc3)cc2)cc1OC (centres undefined)	162
Clc1cc(N2CCOCC2)ccc1Nc1ncc2c(Cl)cc(-c3ccccc3)n2n1	242 to 244
COc1ccnc(N2CCN(C(=S)c3ccccc3)CC2)n1	125 to 129
CCn1ncnc1COc1nn2c(-c3cc(F)ccc3F)nncc2c1C(C)(C)CC	85 to 86
CS(=O)(=O)c1ccc(-c2oc(CO)cc(=O)c2Oc2ccc(F)cc2F)cc1	205
CC1(O)CCC2(C)C(CCC3C2CCC2(C)C(C(=O)COc4ccc([N+](=O)[O-])cc4)CCC32)C1 (centres undefined)	169 to 172

SMILES	melting point [°C]
Oc1ccc(-c2nn(C3CCCC3)c3c(C(F)(F)F)cccc23)c(O)c1	159 to 160
COC1CCc2c(C)c(O)c(C)c(C)c2O1 (centres undefined)	108 to 110
Cc1ccccc1-c1c(NC(=O)Nc2ccc(F)cc2F)c(=O)oc2cc3c(cc12)CCC3	223 to 224
CC(C)(C(=O)Nc1cccc(Cl)c1)N1COC(CBr)=C(c2ccccc2)C1=O	89.8 to 90.8
CCCCCCCCCCCCCCCCCCOC(=O)CCC(=O)OC1CC(C)(C)N(C)C(C)(C)C1	38 to 40
Fc1ccc2c(c1)NCc1c(-c3noc(C4CC4)n3)ncn1-2	263 to 265
CCCN1CCN(C(=O)C(Cl)Cl)CC1	88
C=CCOc1ccc(Nc2ccn(-c3ccccc3)n2)cc1	80 to 81
CC12CCC(C1)C(C)(C)C2(S)CC#N (centres undefined)	170 to 171
C=CCC1(c2ccc(Br)cc2)C2CCC(C(=O)C2)C1Nc1ccc(OC)cc1 (centres undefined)	68 to 69
CCCc1cc(NC(=O)N2CCN(c3ccccc3OC)CC2)c(OC)nc1C	109 to 110
Nc1cccc(Cn2c(-c3ccc(-c4cccnc4)cc3)ccc2-c2ccccc2Cl)n1	139 to 145
CCn1c2c(c3ccccc31)C=CN(C(=O)OC)C=C2C(=O)OC	129
Cc1cn(-c2cc(Br)c(N)c(C(F)(F)F)c2)c(C)n1	149
CCCCOc1cc(CCC(=O)O)ccc1-c1cccc(CN(C)C(=O)c2cccc(OC)c2)c1	80 to 82
Cc1ccc(C(=S)CC2CCCN(C)C2)cc1 (centres undefined)	61.5 to 62.5
CC1CC2C3CC(Cl)C4=CC(=O)C=CC4(C)C3C(O)CC2(C)C1C(=O)CO (centres undefined)	128
C(#Cc1cccnc1)c1ccccc1	42 to 43
COc1cc2nc(OC)n3cnnc3c2cc1OC	245 to 250
CCCCCCCCC=CCCCCCCCCCCCC(=O)NC(=O)CN	128 to 130
Cc1nnc2n1-c1sc(Cl)cc1C(c1ccccc1[N+](=O)[O-])=NC2	210 to 212

Further lines, results first:

melting point [°C]	SMILES
156 to 158	CC(C)n1c(=O)ccc2cnc(Nc3cccnc3)nc21
> 280	O=C(Nc1nccs1)c1c(C(F)(F)F)nc2ccccc2c1O
174 to 177	CCOCc1nc2c(N)nc3ccccc3c2n1NCCCNC(=O)NC(C)C
71 to 73	COc1nc(C)c(C)cc1[N+](=O)[O-]
114 to 116	COc1ccc(C=CC(=O)N2CC(CCl)c3c2cc(N)c2ccccc32)cc1 (centres undefined)
182 to 184	COc1cc(C(C)C)c2c(c1)S(=O)(=O)N(COc1cc(C)oc(=O)c1Cl)C2=O
164 to 166	Cc1c(C(=O)N(C)Cc2ccc3c(Br)c(OCc4nnn[nH]4)ccc3c2)oc2ccccc12
186 to 189	O=C(N1c2ccccc2C(Br)C(Br)c2ccccc21)C(F)(F)F (centres undefined)
116 to 117	CN(C)c1ncc(-c2cccc(N)c2)cn1
130 to 140	CC1C(=O)Nc2c(C(=O)c3ccc(Cl)cc3)cccc21 (centres undefined)
194 to 196	CN(C)C(=O)c1ccccc1Sc1c[nH]c2ccccc12
80 to 84	Nc1nc(Oc2ccc(C(F)(F)F)cc2Cl)ccc1[N+](=O)[O-]
180	COC(=O)c1cc(F)ccc1Nc1ccnc2cc(Cl)ccc12
83 to 85	CCOC(=O)/C=C(/c1ccc(OC)cc1)c1cc(C)cc(Cl)c1
156 to 158	COc1cccc2c1C(=O)OC2(C)O (centres undefined)
79 to 81	O=C(NCCCCCn1cncn1)c1ccc(Cl)s1
160 to 163	O=C(NCCc1c[nH]cn1)c1ccccc1NS(=O)(=O)c1cccc(C(F)(F)F)c1
104 to 105	CC(C)(C)OC(=O)c1cc2ccccc2[nH]1
84 to 85	COc1ccc(C(=O)C#CCO)cc1
94.5 to 95	CC(C)(C)c1ccc(C#N)cc1N
84	CCOC(=O)COc1cc(OCc2ccccc2)ccc1C#N

melting point [°C]	SMILES
266	CN(C(=O)Nc1ccsc1)c1cccc2cc(-c3nccs3)[nH]c12
175 to 176	CC(=O)n1c2ccccc2c2ccc(C(=O)CCl)cc21
195 to 197	CCCOc1ccccc1-c1nc2c(C(=O)O)cccc2c(=O)[nH]1
173 to 174	Cc1ccn(-c2ccc(S(C)(=O)=O)cc2)c1-c1ccc(Cl)cc1
63	COc1ccccc1Cc1ccc(Cl)nn1
211	Cc1cc(NC(=O)Cc2ccsc2)nc(C)c1Br
194 to 197	N#Cc1ccc(C(=C2CCOC2=O)n2ccnc2)cc1
97 to 100	CN(C)CCNC(=O)c1cccc(N)c1
180 to 182	NC(=O)c1cnc2ccsc2c1Cl
191 to 194	N#CC(c1ccc(Cl)c(Cl)c1)c1c(Cl)cc(N)cc1Cl (centres undefined)
49 to 50	COC(=O)c1ccc(Cl)c2c1C=CCO2
194 to 195	CC#CCOc1ccc(/C=C/C(=O)Nc2ccccc2C(=O)O)cc1OC
249 to 251	O=c1cc(Sc2ccc(O)cc2)oc2cc(O)cc(O)c12
154 to 156	O=c1[nH]c(=O)n(CCCCBr)c2ccc(Cl)cc12
186 to 187	CCCCc1nc2cccc(C(=O)OC)c2n1Cc1ccc(-n2cccc2-c2nnn[nH]2)cc1
148 to 150	CC(C)CNc1c(N)c2nnnn2c2ccccc12
246	CCOC(=O)N1C(=O)C(C)(C)c2cc(C3=NNC(=O)SC3C)ccc21 (centres undefined)
218 to 221	Nc1cc(O)nc(SCc2cccc(F)c2F)n1
62 to 64	CCOC(=O)Cc1ccc2c(c1)sc1c(Cl)cccc12
268 to 269	CCC(CC)Nc1c(NCc2ccc(Cl)c(Cl)c2)c(=O)c1=O
